# Results: patent US20100168054A1, “Functionalized Beta 1,6 Glucosamine Disaccharides and Process for Their Preparation” (OM PHARMA, priority 2006, published 2010)
# “And” between values parts separate entries of the source, which are not always exact repeats. Identical values can stand only once. Marks after values point to notes of the source that are not given here.
# How the values were obtained:
# Assay type in all cases: in vivo, BALB/c ByJ mice
# [1] = tested on: LACK-sensitized and challenged mice; assay: LACK-induced asthma model: LACK-specific IgE in sera; details: therapeutic
# Description: (§1) An example in vivo of the biological activity of two representative compounds of the invention is presented here. Using a mouse model of allergic asthma previously published (described in Julia et al. Immunity. 2002 February; 16(2):271-83), we aimed to investigate whether i.p. administrations of the synthetic molecules OM-174-DP and OM-174-MP-PD would inhibit airway inflammation in LACK-sensitized and challenged mice. To this goal, mice were treated either all along asthma induction (prophylactic model) or therapeutically (i.e. three times after animals have been sensitized to the allergen, the protein LACK). As read-outs, eosinophils were enumerated in bronchoalveolar lavages (BAL), and the well known markers of allergic asthma, namely the Th2 cytokines IL-4, IL-5, and IL-13 were quantified from the lungs. Moreover the level of plasmatic IgE was also reported.
# (§2) OM-174-DP (i.p.)-treated LACK-sensitized and challenged mice (6 mice) Treatment and Schedule with Test or Control Article Experiment started at day 0. On days 0, 2, 3, 4, 7, 9, 10 11, and 12, mice of groups C, and D were treated i.p. with synthetic OM-174-DP (compound 1b) and OM-174-MP-PD (compound 19) respectively at the dose of 1 mg/Kg (20 μg per mouse). Mice of groups E were treated therapeutically i.p. on days 15, 17 and 19 at the dose of 1 mg/Kg (20 μg per mouse).
# (§3) On day 1 and day 8, mice were sensitized i.p. with LACK/Alum. From day 16 to day 20, all the groups except group A mice were challenged with aerosols of a solution of LACK (0.15%). Group A received a saline solution (NaCl 0.9%) (group A) for 40 minutes instead.
# To analyze specific IgE contents, mice of groups A, B, and G were bled by heart puncture two days after the last aerosol, and sera were prepared. LACK-specific IgE were measured by ELISA.
# [2] = tested on: LACK-sensitized and challenged mice; assay: LACK-induced asthma model: eosinophils in bronchoalveolar lavages; details: for Eosino × 10^6, Mean ± SEM / Eosino × 10^6, individual mice: BAL; for Eosino × 10^6, individual mice: 1 mg/kg
# Description: as §1, §2, §3
# For all the animals, Broncho-alveolar lavages (BAL) were performed. Two days after the last aerosol challenge, mice were bled and a canula was inserted into their trachea. Lungs were washed 3 times with 1 ml of warmed PBS. Cells were washed with PBS, and red blood cells were lysed using a red blood cell lysis buffer. Cells were further washed in PBS and counted. For differential BAL cell counts, cytospin preparations were made and stained with Wright/Giemsa. At least 400 cells were scored for each slide, and the numbers of lymphocytes, neutrophils, eosinophils, and macrophages/DC/pneumocytes (scored as other mononuclear cells) were determined by microscopic examination. Only eosinophilia is reported here.
# [3] = tested on: LACK-sensitized and challenged mice; assay: LACK-induced asthma model: pulmonary cytokines
# Description: as §1, §2, §3
# To analyze pulmonary cytokine contents, lungs were harvested and left lungs were used to prepare protein extracts. 400 μl were recovered for each left lung. Cytokines (IL-4 and IL-13 in a first series of analyses, and then IL-5 and IFN-γ) were measured by multiplex analysis using FACSArray. The results, normalized for the protein content, are presented in pg/ml.
# [4] = prophylactic, i.p. 1 mg/Kg on days 0, 2, 3, 4, 7, 9, 10, 11, 12
# [5] = therapeutic, i.p. 1 mg/Kg on days 15, 17, 19
# [6] = prophylactic, i.p. 1 mg/Kg, 1 mg/kg
# [7] = therapeutic, i.p. 1 mg/Kg on days 15, 17, 19, 1 mg/kg
Structure (SMILES),"Eosino × 10^6, Mean ± SEM [2, 4]","Eosino × 10^6, individual mice [2, 4]",times less BAL eosinophilia compared to positive asthmatic group (B) ([2]; prophylactic),fold decrease of IL-4 in lungs compared to group B ([3]; prophylactic) [fold],fold reduction of IL-13 compared to asthmatic mice ([3]; prophylactic) [fold],"Mean IL13 ([3]; prophylactic, i.p. 1 mg/Kg)","Mean IL-4 ([3]; prophylactic, i.p. 1 mg/Kg)","IL13 in lungs, individual mice [3, 6]","IL-4 in lungs, individual mice [3, 6]",also measured
"CCCCCCCCCCCC(=O)O[C@H](CCCCCCCCCCC)CC(=O)NC1C(OCC2OC(OP(=O)(O)O)C(NC(=O)C[C@H](O)CCCCCCCCCCC)C(O)C2O)OC(CO)C(OP(=O)(O)O)C1O (stereo partly drawn) [compound 1b, 2-Deoxy-6-O-[2-deoxy-4-O-(dihydroxyphosphoryl)-2-[(R)-3-dodecanoyloxytetradecanoylamino]-β-D-glucopyranosyl]-2-[(R)-3-hydroxytetradecanoylamino]-α-D-glucopyranosyl dihydrogenophosphate]",109781 ± 139453 × 10^6,75359 × 10^6 and 385612 × 10^6 and 33412 × 10^6 and 54158 × 10^6 and 105352 × 10^6 and 4792 × 10^6,about 8 times,6,4,13.40* pg/ml,1.50** pg/ml,8.39 pg/mL and 25.39 pg/mL and 8.2 pg/mL and 24.29 pg/mL and 12.52 pg/mL and 1.59 pg/mL,1.1 pg/mL and 3.33 pg/mL and 0.71 pg/mL and 2.43 pg/mL and 1.23 pg/mL and 0.17 pg/mL,"Mean IgE ([1]; sera, i.p. 1 mg/Kg on days 15, 17, 19): 224.56* ng/ml; LACK-specific IgE, individual mice ([1]; sera, i.p. 1 mg/Kg on days 15, 17, 19, 1 mg/kg): 188 ng/mL and 159 ng/mL and 94 ng/mL and 382 ng/mL and 395 ng/mL and 129 ng/mL; fold less LACK-specific IgE compared to untreated LACK challenged mice [1]: 2.6 fold; Eosino × 10^6, Mean ± SEM [2, 5]: 13923 ± 7362 × 10^6; Eosino × 10^6, individual mice [2, 5]: 16744 × 10^6 and 3802 × 10^6 and 7411 × 10^6 and 21739 × 10^6 and 12500 × 10^6 and 21343 × 10^6; factor of decrease of eosinophil count compared to group B ([2]; therapeutic, three times): 64; fold reduction in IL-4 compared to group B ([3]; therapeutic): 4 fold; fold reduction in IL-13 compared to group B ([3]; therapeutic): 3 fold; fold reduction of IL-5 compared to untreated mice ([3]; therapeutic): 2.8 fold; reduction of IFN-γ levels compared to group B (in words) ([3]; therapeutic): reduced twofold; Mean IFN-γ [3, 5]: 1.38* pg/ml; Mean IL13 [3, 5]: 17.90* pg/ml; Mean IL-4 [3, 5]: 2.33** pg/ml; Mean IL-5 [3, 5]: 6.00** pg/ml; IFN-γ in lungs, individual mice [3, 7]: 1.62 pg/mL and 0.88 pg/mL and 0.94 pg/mL and 2.2 pg/mL and 0.81 pg/mL and 1.8 pg/mL; IL13 in lungs, individual mice [3, 7]: 20.35 pg/mL and 5.43 pg/mL and 9.93 pg/mL and 23.68 pg/mL and 21.99 pg/mL and 26.02 pg/mL; IL-4 in lungs, individual mice [3, 7]: 2.5 pg/ml and 1 pg/ml and 1.58 pg/ml and 3.48 pg/ml (2×) and 1.94 pg/ml; IL-5 in lungs, individual mice [3, 7]: 7.41 pg/mL and 1.06 pg/mL and 2.15 pg/mL and 9.23 pg/mL and 5.81 pg/mL and 10.33 pg/mL"
"CCCCCCCCCCCC(=O)O[C@H](CCCCCCCCCCC)CC(=O)N[C@H]1[C@H](OC[C@H]2O[C@H](OCC(O)CO)[C@H](NC(=O)C[C@H](O)CCCCCCCCCCC)[C@@H](O)[C@@H]2O)O[C@H](CO)[C@@H](OP(=O)(O)O)[C@@H]1O (stereo partly drawn) [compound 19, 2,3-Dihydroxypropyl-2-Deoxy-6-O-[2-deoxy-4-O-(dihydroxyphosphoryl)-2-[(R)-3-dodecanoyloxytetradecanoylamino]-β-D-glucopyranosyl]-2-[(R)-3-hydroxytetradecanoylamino]-α-D-glucopyranoside]",100411 ± 80738 × 10^6,33286 × 10^6 and 64010 × 10^6 and 47018 × 10^6 and 252294 × 10^6 and 82555 × 10^6 and 123305 × 10^6,about 8 times,4,3,16.62* pg/ml,2.09** pg/ml,12.08 pg/mL and 17.1 pg/mL and 8.59 pg/mL and 30.6 pg/mL and 16.14 pg/mL and 15.21 pg/mL,1.01 pg/mL and 1.47 pg/mL and 0.91 pg/mL and 5.68 pg/mL and 1.79 pg/mL and 1.66 pg/mL,
